Reference: ChEMBL document CHEMBL3526017, “Predicting the drug interaction potential of AMG 853, a dual antagonist of the D-prostanoid and chemoattractant receptor-homologous molecule expressed on T helper 2 cells receptors” (Drug Metab Dispos, 2012)

Assays:
Cytochrome P450 2C8 [1] = molecular target: T1, Cytochrome P450 2C8 (Homo sapiens, UniProt P10632); assay: Competitive inhibition of CYP2C8 in human liver microsomes assessed as rosiglitazone demethylation after 20 mins by LC-MS/MS analysis; type: ADME
T1 sequence (P10632 whole entry): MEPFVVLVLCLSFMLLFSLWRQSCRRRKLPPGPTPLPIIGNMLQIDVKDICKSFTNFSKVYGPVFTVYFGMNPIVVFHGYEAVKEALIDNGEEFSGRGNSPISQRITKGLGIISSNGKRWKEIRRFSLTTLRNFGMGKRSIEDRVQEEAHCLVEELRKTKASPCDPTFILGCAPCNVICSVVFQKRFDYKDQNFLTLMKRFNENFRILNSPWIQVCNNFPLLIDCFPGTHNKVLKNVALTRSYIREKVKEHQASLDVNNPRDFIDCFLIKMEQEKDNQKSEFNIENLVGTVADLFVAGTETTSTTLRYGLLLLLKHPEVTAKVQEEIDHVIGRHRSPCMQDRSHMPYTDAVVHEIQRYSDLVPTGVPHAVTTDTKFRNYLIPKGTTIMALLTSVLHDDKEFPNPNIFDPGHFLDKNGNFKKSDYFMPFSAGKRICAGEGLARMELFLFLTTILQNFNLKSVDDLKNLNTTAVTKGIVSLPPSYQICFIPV

CYP2C9 = assay: Upregulation of CYP2C9 mRNA expression in human hepatocytes at 0.3 to 30 uM treated every 24 hrs for 2 days measured on day 5 relative to control; type: ADME, cell-based, Hepatocyte; conditions: read-out: FC
CYP3A4 = assay: Upregulation of CYP3A4 mRNA expression in human hepatocytes at 0.3 to 30 uM treated every 24 hrs for 2 days measured on day 5 relative to control; type: ADME, cell-based, Hepatocyte; conditions: read-out: FC
[2] = (§1) Drug metabolism in human liver microsomes assessed as […]-mediated (2S,3S,4S,5R,6S)-6-(2-(4-(4-(tert-butylcarbamoyl)-2-(2-chloro-4-cyclopropylphenylsulfonamido)phenoxy)-5-chloro-2-fluorophenyl)acetoxy)-3,4,5-trihydroxytetrahydro-2H-pyran-2-carboxylic acid formation after 15 mins by LC-MS/MS analysis in presence of UDPGA and NADPH; type: ADME; conditions: 0.25 h
[3] = as §1, with “UDPGA” for “UDPGA and NADPH”; type: ADME; conditions: 0.25 h
Cytochrome P450 2C8 [4] = molecular target: T1, Cytochrome P450 2C8; assay: Drug metabolism assessed as recombinant CYP2C8 (unknown origin)-mediated 2-(5-chloro-4-(2-(2-chloro-4-cyclopropylphenylsulfonamido)-4-(1-hydroxy-2-methylpropan-2-ylcarbamoyl)phenoxy)-2-fluorophenyl)acetic acid formation at 10 uM after 30 mins by LC-MS/MS analysis; type: ADME; conditions: recombinant enzyme, 0.5 h
Cytochrome P450 3A7 = Cytochrome P450 3A7 (Homo sapiens, UniProt P24462); assay: Drug metabolism assessed as recombinant CYP3A7 (unknown origin)-mediated 2-(4-(4-(tert-butylcarbamoyl)-2-(2-chloro-4-(1-hydroxycyclopropyl)phenylsulfonamido)phenoxy)-5-chloro-2-fluorophenyl)acetic acid formation at 10 uM after 30 mins by LC-MS/MS analysis; type: ADME; conditions: recombinant enzyme, 0.5 h
Cytochrome P450 2C19 = Cytochrome P450 2C19 (Homo sapiens, UniProt P33261); assay: Drug metabolism assessed as recombinant CYP2C19 (unknown origin)-mediated 2-(4-(4-(tert-butylcarbamoyl)-2-(2-chloro-4-(1-hydroxycyclopropyl)phenylsulfonamido)phenoxy)-5-chloro-2-fluorophenyl)acetic acid formation at 10 uM after 30 mins by LC-MS/MS analysis; type: ADME; conditions: recombinant enzyme, 0.5 h
Liver microsome = assay: Drug metabolism in human liver microsomes assessed as 2-(4-(4-(tert-butylcarbamoyl)-2-(2-chloro-4-(1-hydroxycyclopropyl)phenylsulfonamido)phenoxy)-5-chloro-2-fluorophenyl)acetic acid formation at 2 uM after 60 mins by LC-MS/MS analysis in presence of montelukast; type: ADME; conditions: 1 h
[5] = molecular target: UDP-glucuronosyltransferase 2B4 (Homo sapiens, UniProt P06133); assay: (§2) Drug metabolism assessed as human recombinant UGT2B4-mediated (2S,3S,4S,5R,6S)-6-(2-(4-(4-(tert-butylcarbamoyl)-2-(2-chloro-4-cyclopropylphenylsulfonamido)phenoxy)-5-chloro-2-fluorophenyl)acetoxy)-3,4,5-trihydroxytetrahydro-2H-pyran-2-carboxylic acid formation at 10 uM after 30 mins by LC-MS/MS analysis; type: ADME; conditions: recombinant enzyme, 0.5 h
[6] = molecular target: UDP-glucuronosyltransferase 2B15 (Homo sapiens, UniProt P54855); assay: as §2, with “UGT2B15-mediated” for “UGT2B4-mediated”; type: ADME; conditions: recombinant enzyme, 0.5 h
[7] = molecular target: T2, UDP-glucuronosyltransferase 1A3 (Homo sapiens, UniProt P35503); assay: Drug metabolism assessed as human recombinant UGT1A3-mediated compound formation treated with AMG 853 at 10 uM after 30 mins by LC-MS/MS analysis; type: ADME; conditions: recombinant enzyme, 0.5 h
T2 sequence (P35503 whole entry): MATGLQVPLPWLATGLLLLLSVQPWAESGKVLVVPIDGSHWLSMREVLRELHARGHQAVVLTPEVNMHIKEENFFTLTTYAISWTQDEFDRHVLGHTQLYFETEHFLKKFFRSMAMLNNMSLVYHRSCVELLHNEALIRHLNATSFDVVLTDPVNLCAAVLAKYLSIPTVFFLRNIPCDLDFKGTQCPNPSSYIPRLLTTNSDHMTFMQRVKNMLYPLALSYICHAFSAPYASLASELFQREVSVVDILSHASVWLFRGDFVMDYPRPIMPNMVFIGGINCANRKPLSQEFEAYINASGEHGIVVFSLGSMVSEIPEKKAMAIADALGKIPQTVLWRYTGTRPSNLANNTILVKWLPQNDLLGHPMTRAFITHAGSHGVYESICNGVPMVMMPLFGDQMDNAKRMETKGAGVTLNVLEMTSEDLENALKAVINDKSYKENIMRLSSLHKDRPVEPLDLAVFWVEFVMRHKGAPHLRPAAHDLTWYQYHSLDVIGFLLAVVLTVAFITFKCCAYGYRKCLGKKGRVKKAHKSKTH

[8] = molecular target: T3, UDP-glucuronosyltransferase 2B7 (Homo sapiens, UniProt P16662); assay: Drug metabolism assessed as human recombinant UGT2B7-mediated compound formation treated with AMG 853 after 45 mins by LC-MS/MS analysis in presence of UDPGA; type: ADME; conditions: recombinant enzyme, 0.75 h
T3 sequence (P16662 whole entry): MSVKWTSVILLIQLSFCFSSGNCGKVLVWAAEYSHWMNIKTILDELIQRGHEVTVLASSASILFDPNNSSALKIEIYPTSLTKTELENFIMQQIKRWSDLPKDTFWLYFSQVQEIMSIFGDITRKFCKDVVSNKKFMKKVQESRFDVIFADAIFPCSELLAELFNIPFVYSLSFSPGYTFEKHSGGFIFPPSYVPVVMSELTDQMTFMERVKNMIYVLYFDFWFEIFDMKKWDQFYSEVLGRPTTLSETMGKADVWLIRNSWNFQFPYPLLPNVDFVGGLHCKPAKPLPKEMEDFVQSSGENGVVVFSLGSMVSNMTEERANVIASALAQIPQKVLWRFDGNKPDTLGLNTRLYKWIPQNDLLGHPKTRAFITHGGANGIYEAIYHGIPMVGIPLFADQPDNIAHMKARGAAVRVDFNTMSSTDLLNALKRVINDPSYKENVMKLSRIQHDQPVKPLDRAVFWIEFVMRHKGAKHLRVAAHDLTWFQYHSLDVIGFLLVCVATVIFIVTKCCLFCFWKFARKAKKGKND

Chain of Cytochrome P450 2C19 (P33261 whole entry): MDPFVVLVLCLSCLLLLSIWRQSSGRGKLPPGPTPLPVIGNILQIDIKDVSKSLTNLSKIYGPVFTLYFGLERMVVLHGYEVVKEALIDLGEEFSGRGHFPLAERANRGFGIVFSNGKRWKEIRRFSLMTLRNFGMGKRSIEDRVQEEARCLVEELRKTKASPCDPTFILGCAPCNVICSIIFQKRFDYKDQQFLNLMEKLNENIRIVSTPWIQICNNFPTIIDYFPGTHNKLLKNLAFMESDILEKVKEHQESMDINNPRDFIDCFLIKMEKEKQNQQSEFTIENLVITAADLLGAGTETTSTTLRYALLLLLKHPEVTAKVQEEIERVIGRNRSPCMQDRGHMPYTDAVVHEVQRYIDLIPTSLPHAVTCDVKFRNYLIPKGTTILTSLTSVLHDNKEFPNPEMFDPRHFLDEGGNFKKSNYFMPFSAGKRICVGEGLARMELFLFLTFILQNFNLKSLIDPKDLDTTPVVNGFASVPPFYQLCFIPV
Chain of Cytochrome P450 3A7 (P24462 whole entry): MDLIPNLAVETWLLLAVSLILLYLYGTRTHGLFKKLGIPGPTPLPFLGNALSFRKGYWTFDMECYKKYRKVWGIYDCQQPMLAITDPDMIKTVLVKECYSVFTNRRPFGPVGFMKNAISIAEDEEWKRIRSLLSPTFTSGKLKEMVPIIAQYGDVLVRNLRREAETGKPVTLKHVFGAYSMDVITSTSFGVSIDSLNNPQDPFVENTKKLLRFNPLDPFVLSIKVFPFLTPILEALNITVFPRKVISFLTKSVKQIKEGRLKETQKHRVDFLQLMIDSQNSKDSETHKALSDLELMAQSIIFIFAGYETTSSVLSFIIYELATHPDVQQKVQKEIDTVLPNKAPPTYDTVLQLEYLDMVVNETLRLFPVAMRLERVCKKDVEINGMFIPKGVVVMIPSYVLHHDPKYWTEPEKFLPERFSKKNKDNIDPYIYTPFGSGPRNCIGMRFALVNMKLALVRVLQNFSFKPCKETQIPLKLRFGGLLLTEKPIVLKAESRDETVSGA
Chain of UDP-glucuronosyltransferase 2B15 (P54855 whole entry): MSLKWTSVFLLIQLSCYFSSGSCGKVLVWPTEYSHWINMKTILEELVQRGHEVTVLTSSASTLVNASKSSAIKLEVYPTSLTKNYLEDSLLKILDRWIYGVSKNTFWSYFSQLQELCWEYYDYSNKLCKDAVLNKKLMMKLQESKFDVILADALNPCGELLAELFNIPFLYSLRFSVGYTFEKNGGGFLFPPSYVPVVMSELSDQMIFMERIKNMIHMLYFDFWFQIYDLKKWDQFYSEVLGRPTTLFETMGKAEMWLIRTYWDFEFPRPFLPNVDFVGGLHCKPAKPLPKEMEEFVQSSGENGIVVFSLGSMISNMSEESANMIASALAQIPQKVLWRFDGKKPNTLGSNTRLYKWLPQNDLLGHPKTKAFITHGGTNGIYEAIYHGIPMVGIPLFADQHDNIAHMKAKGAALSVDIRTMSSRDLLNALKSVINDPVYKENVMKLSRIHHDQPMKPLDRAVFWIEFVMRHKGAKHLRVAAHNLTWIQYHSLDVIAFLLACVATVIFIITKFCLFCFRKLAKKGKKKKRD
Chain of UDP-glucuronosyltransferase 2B4 (P06133 whole entry): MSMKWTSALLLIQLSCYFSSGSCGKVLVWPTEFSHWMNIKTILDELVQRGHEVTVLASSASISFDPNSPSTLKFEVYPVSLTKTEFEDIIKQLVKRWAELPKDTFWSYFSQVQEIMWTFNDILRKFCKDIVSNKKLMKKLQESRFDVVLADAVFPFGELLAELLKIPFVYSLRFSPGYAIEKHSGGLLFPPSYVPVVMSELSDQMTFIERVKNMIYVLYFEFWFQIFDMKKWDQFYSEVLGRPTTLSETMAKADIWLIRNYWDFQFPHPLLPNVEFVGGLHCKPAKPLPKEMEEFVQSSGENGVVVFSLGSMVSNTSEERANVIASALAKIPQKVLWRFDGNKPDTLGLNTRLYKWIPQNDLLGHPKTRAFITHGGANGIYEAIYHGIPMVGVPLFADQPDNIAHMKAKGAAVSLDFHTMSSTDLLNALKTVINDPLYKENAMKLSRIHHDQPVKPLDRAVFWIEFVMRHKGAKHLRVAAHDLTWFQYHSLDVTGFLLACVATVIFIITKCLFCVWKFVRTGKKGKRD

Row | Ki (Cytochrome P450 2C8 [1]) [µM] | fold induction at 48 h, up to 30 µM (CYP2C9) | fold induction at 48 h, up to 30 µM (CYP3A4) | Drug metabolism (Cytochrome P450 2C8 [4]) | Drug metabolism (Cytochrome P450 3A7) | Drug metabolism (Cytochrome P450 2C19) | Drug metabolism (Liver microsome) | Drug metabolism [7] | S50 [8] [µM] | Vmax [8] [pmol/min/mg] | SMILES | Drug metabolism [2] | Drug metabolism [3] | Drug metabolism [5] | Drug metabolism [6]
1 | 6 | 1.7 | 1.7 | metabolite_detected | metabolite_detected | metabolite_detected | metabolite_not_detected |  |  |  | CC(C)(C)NC(=O)c1ccc(Oc2cc(F)c(CC(=O)O)cc2Cl)c(NS(=O)(=O)c2ccc(C3CC3)cc2Cl)c1 [VIDUPIPRANT] | metabolite_not_detected | metabolite_detected | metabolite_not_detected | metabolite_not_detected
2 |  |  |  |  |  |  |  | metabolite_detected | 183.4 | 13.6 | CC(C)(C)NC(=O)c1ccc(Oc2cc(F)c(CC(=O)O[C@@H]3O[C@H](C(=O)O)[C@@H](O)[C@H](O)[C@H]3O)cc2Cl)c(NS(=O)(=O)c2ccc(C3CC3)cc2Cl)c1 |  |  |  | 
